# Measured values reported in PubChem BioAssay (NCI).
#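 Briefly, cells in 96-well plates were exposed to five compound concentrations for 48 h, and endpoints were estimated by linear interpolation. TGI is the concentration that stops growth completely.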
# Legend:
# Assay in all cases: inhibition of tumour cell growth, NCI panel, 48 h
# 786-0 renal = tested on: 786-0 renal
# A498 renal = tested on: A498 renal
# A549 NSCLC = tested on: A549 NSCLC
# ACHN renal = tested on: ACHN renal
# BT-549 breast = tested on: BT-549 breast
# CAKI-1 renal = tested on: CAKI-1 renal
# CCRF-CEM leukemia = tested on: CCRF-CEM leukemia
# COLO 205 colon = tested on: COLO 205 colon
# DU-145 prostate = tested on: DU-145 prostate
# EKVX NSCLC = tested on: EKVX NSCLC
# HCT-116 colon = tested on: HCT-116 colon
# HCT-15 colon = tested on: HCT-15 colon
# HL-60(TB) leukemia = tested on: HL-60(TB) leukemia
# HOP-62 NSCLC = tested on: HOP-62 NSCLC
# HOP-92 NSCLC = tested on: HOP-92 NSCLC
# HS 578T breast = tested on: HS 578T breast
# HT29 colon = tested on: HT29 colon
# IGROV1 ovarian = tested on: IGROV1 ovarian
# K-562 leukemia = tested on: K-562 leukemia
# KM12 colon = tested on: KM12 colon
# LOX IMVI melanoma = tested on: LOX IMVI melanoma
# M14 melanoma = tested on: M14 melanoma
# MALME-3M melanoma = tested on: MALME-3M melanoma
# MCF7 breast = tested on: MCF7 breast
# MDA-MB-231 breast = tested on: MDA-MB-231 breast
# MDA-MB-435 = tested on: MDA-MB-435
# MDA-N = tested on: MDA-N
# MOLT-4 leukemia = tested on: MOLT-4 leukemia
# NCI-H226 lung = tested on: NCI-H226 lung
# NCI-H23 lung = tested on: NCI-H23 lung
# NCI-H522 lung = tested on: NCI-H522 lung
# NCI/ADR-RES ovarian = tested on: NCI/ADR-RES ovarian
# OVCAR-3 ovarian = tested on: OVCAR-3 ovarian
# OVCAR-5 ovarian = tested on: OVCAR-5 ovarian
# OVCAR-8 ovarian = tested on: OVCAR-8 ovarian
# RPMI-8226 leukemia = tested on: RPMI-8226 leukemia
# RXF 393 renal = tested on: RXF 393 renal
# SF-268 CNS = tested on: SF-268 CNS
# SF-295 CNS = tested on: SF-295 CNS
# SF-539 CNS = tested on: SF-539 CNS
# SK-MEL-2 melanoma = tested on: SK-MEL-2 melanoma
# SK-MEL-28 melanoma = tested on: SK-MEL-28 melanoma
# SK-MEL-5 melanoma = tested on: SK-MEL-5 melanoma
# SK-OV-3 ovarian = tested on: SK-OV-3 ovarian
# SN12C renal = tested on: SN12C renal
# SNB-19 CNS = tested on: SNB-19 CNS
# SNB-75 CNS = tested on: SNB-75 CNS
# SR leukemia = tested on: SR leukemia
# SW-620 colon = tested on: SW-620 colon
# T-47D breast = tested on: T-47D breast
# TK-10 renal = tested on: TK-10 renal
# UACC-257 melanoma = tested on: UACC-257 melanoma
# UACC-62 melanoma = tested on: UACC-62 melanoma
# UO-31 renal = tested on: UO-31 renal
# HCC-2998 colon = tested on: HCC-2998 colon
# NCI-H460 lung = tested on: NCI-H460 lung
# OVCAR-4 ovarian = tested on: OVCAR-4 ovarian
# PC-3 prostate = tested on: PC-3 prostate
# U251 CNS = tested on: U251 CNS
smiles,measurement,setting,value
Cn1c(N)c(Cc2ccc(Cl)cc2)c(=O)[nH]c1=O,TGI,786-0 renal,> 100 µM
same,TGI,A498 renal,> 100 µM
same,TGI,A549 NSCLC,> 100 µM
same,TGI,ACHN renal,> 100 µM
same,TGI,BT-549 breast,> 100 µM
same,TGI,CAKI-1 renal,> 100 µM
same,TGI,CCRF-CEM leukemia,> 100 µM
same,TGI,COLO 205 colon,> 100 µM
same,TGI,DU-145 prostate,> 100 µM
same,TGI,EKVX NSCLC,> 100 µM
same,TGI,HCT-116 colon,> 100 µM
same,TGI,HCT-15 colon,> 100 µM
same,TGI,HL-60(TB) leukemia,> 100 µM
same,TGI,HOP-62 NSCLC,> 100 µM
same,TGI,HOP-92 NSCLC,> 100 µM
same,TGI,HS 578T breast,> 100 µM
same,TGI,HT29 colon,> 100 µM
same,TGI,IGROV1 ovarian,> 100 µM
same,TGI,K-562 leukemia,> 100 µM
same,TGI,KM12 colon,> 100 µM
same,TGI,LOX IMVI melanoma,> 100 µM
same,TGI,M14 melanoma,> 100 µM
same,TGI,MALME-3M melanoma,> 100 µM
same,TGI,MCF7 breast,> 100 µM
same,TGI,MDA-MB-231 breast,> 100 µM
same,TGI,MDA-MB-435,> 100 µM
same,TGI,MDA-N,> 100 µM
same,TGI,MOLT-4 leukemia,> 100 µM
same,TGI,NCI-H226 lung,> 100 µM
same,TGI,NCI-H23 lung,> 100 µM
same,TGI,NCI-H522 lung,> 100 µM
same,TGI,NCI/ADR-RES ovarian,> 100 µM
same,TGI,OVCAR-3 ovarian,> 100 µM
same,TGI,OVCAR-5 ovarian,> 100 µM
same,TGI,OVCAR-8 ovarian,> 100 µM
same,TGI,RPMI-8226 leukemia,> 100 µM
same,TGI,RXF 393 renal,> 100 µM
same,TGI,SF-268 CNS,> 100 µM
same,TGI,SF-295 CNS,> 100 µM
same,TGI,SF-539 CNS,> 100 µM
same,TGI,SK-MEL-2 melanoma,> 100 µM
same,TGI,SK-MEL-28 melanoma,> 100 µM
same,TGI,SK-MEL-5 melanoma,> 100 µM
same,TGI,SK-OV-3 ovarian,> 100 µM
same,TGI,SN12C renal,> 100 µM
same,TGI,SNB-19 CNS,> 100 µM
same,TGI,SNB-75 CNS,> 100 µM
same,TGI,SR leukemia,> 100 µM
same,TGI,SW-620 colon,> 100 µM
same,TGI,T-47D breast,> 100 µM
same,TGI,TK-10 renal,> 100 µM
same,TGI,UACC-257 melanoma,> 100 µM
same,TGI,UACC-62 melanoma,> 100 µM
same,TGI,UO-31 renal,> 100 µM
CC(=O)c1c(SCCN2CCCCCC2)n(-c2ccccc2)c(=S)n(-c2ccccc2)c1=O,TGI,786-0 renal,3.36 µM
same,TGI,A498 renal,28.7 µM
same,TGI,A549 NSCLC,15.2 µM
same,TGI,ACHN renal,3.31 µM
same,TGI,BT-549 breast,32.7 µM
same,TGI,CAKI-1 renal,8.26 µM
same,TGI,CCRF-CEM leukemia,1.24 µM
same,TGI,COLO 205 colon,3.67 µM
same,TGI,DU-145 prostate,5.18 µM
same,TGI,EKVX NSCLC,40.4 µM
same,TGI,HCC-2998 colon,14.6 µM
same,TGI,HCT-116 colon,18.5 µM
same,TGI,HCT-15 colon,33.7 µM
same,TGI,HOP-62 NSCLC,> 56.4 µM
same,TGI,HOP-92 NSCLC,20.1 µM
same,TGI,HS 578T breast,64.1 µM
same,TGI,HT29 colon,20.7 µM
same,TGI,IGROV1 ovarian,22.7 µM
same,TGI,K-562 leukemia,10.9 µM
same,TGI,KM12 colon,> 54.1 µM
same,TGI,LOX IMVI melanoma,12.5 µM
same,TGI,M14 melanoma,4.9 µM
same,TGI,MALME-3M melanoma,3.51 µM
same,TGI,MDA-MB-231 breast,28.1 µM
same,TGI,MDA-MB-435,25.5 µM
same,TGI,MDA-N,20.3 µM
same,TGI,NCI-H226 lung,61.3 µM
same,TGI,NCI-H23 lung,38.2 µM
same,TGI,NCI-H460 lung,> 54.4 µM
same,TGI,NCI-H522 lung,2.95 µM
same,TGI,NCI/ADR-RES ovarian,> 100 µM
same,TGI,OVCAR-3 ovarian,12 µM
same,TGI,OVCAR-4 ovarian,79.3 µM
same,TGI,OVCAR-5 ovarian,> 69 µM
same,TGI,OVCAR-8 ovarian,24.4 µM
same,TGI,PC-3 prostate,14.2 µM
same,TGI,RXF 393 renal,3.41 µM
same,TGI,SF-268 CNS,26.3 µM
same,TGI,SF-295 CNS,> 100 µM
same,TGI,SF-539 CNS,13.1 µM
same,TGI,SK-MEL-2 melanoma,43.2 µM
same,TGI,SK-MEL-28 melanoma,23.4 µM
same,TGI,SK-MEL-5 melanoma,22.2 µM
same,TGI,SK-OV-3 ovarian,> 100 µM
same,TGI,SN12C renal,19.5 µM
same,TGI,SNB-19 CNS,> 100 µM
same,TGI,SNB-75 CNS,32.8 µM
same,TGI,SR leukemia,8.58 µM
same,TGI,SW-620 colon,4.96 µM
same,TGI,T-47D breast,7.36 µM
same,TGI,TK-10 renal,4.45 µM
same,TGI,U251 CNS,32.5 µM
same,TGI,UACC-257 melanoma,9.62 µM
same,TGI,UACC-62 melanoma,21 µM
